Data from patent US12473250B2, “Molecular design of new antibiotics and antibiotic adjuvants against MCR strains” (priority 2019, dated 2025).
In brackets after ≈: the same amount, converted by molar mass. Where two headings read alike, the source gives them in different places.

What was measured:
Format in all cases: cell-based
[1] = test system: colistin resistant MCR (−) E. Coli strains; assay: MIC, broth microdilution, compound alone
Experimental: (§1) MIC experiments of the antimicrobial agents were determined by a modified broth microdilution method in accordance with the Clinical and Laboratory Standards Institute (CLSI) guidelines using 96 well culture plates. In brief, serial dilutions of all plates were prepared at different concentrations (μg). The inoculum suspension was prepared by adding isolated colonies from a 18-20 hours on TSA plate into phosphate buffer (0.31 mM, pH 7.2) or in water for injection (BBraun) and adjusting the suspension to a turbidity equivalent to 0.5 McFarland Standard. Each well contained a final bacterial concentration of approximately 5×10^5 colony forming units (CFU)/mL. The plate was covered and incubated at 35° C. for 24 hours. […] For the microdilution plates, turbidity in wells can be measured at OD600 using TECAN infinite M200Pro. MIC was determined as […] concentration that gives a 99 percent inhibition.

[2] = test system: colistin resistant MCR (+) E. Coli strains; assay: MIC, broth microdilution, compound alone; conditions: compound alone
Experimental: as §1

[3] = test system: colistin resistant MCR (−) E. Cloacae strain 7023456439; assay: MIC, broth microdilution, compound alone; conditions: strain 7023456439 E. Cloacae
Experimental: as §1

[4] = test system: colistin resistant MCR (−) E. Coli strains; assay: Synergy study: colistin MIC in the presence of compound
Method in brief: (§2)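 CLSI broth microdilution with colistin and LC compound added in equal amounts, 2-fold serial dilution, alone or combined at fixed synergy concentration. MIC taken as lowest concentration with no visible growth after 24 hours of incubation.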

[5] = test system: colistin resistant MCR (+) E. Coli strains; assay: as above
Method in brief: as §2

[6] = test system: colistin resistant MCR (−) E. Cloacae strain 7023456439; assay: as above; conditions: strain 7023456439 E. Cloacae
Method in brief: as §2

[7] = strain 6083672926, MCR(−), compound at 10 μg (Table 2a: 10 ug/ml)
[8] = strain 7023446108, MCR(−), compound at 10 μg (Table 2a: 10 ug/ml)
[9] = strain 7033607097, MCR(−), compound at 10 μg (Table 2a: 10 ug/ml)
[10] = strain 6083655967, MCR(+), compound at 10 μg (Table 2a: 10 ug/ml)
[11] = strain 7023444207, MCR(+), compound at 10 μg (Table 2a: 10 ug/ml)
[12] = compound at 10 μg (Table 2a: 10 ug/ml)
[13] = strain 6083672926, MCR(−), compound at 5 μg (Table 2a: 5 ug/ml)
[14] = strain 7023446108, MCR(−), compound at 5 μg (Table 2a: 5 ug/ml)
[15] = strain 7033607097, MCR(−), compound at 5 μg (Table 2a: 5 ug/ml)
[16] = compound at 5 μg (Table 2a: 5 ug/ml)

Compound | MIC ([1]; strain 6083672926, MCR (−)) [µg/mL] | MIC ([1]; strain 7033607097, MCR (−)) [µg/mL] | MIC ([2]; strain 6083655967, MCR (+)) [µg/mL] | MIC ([2]; strain 6103645107, MCR (+)) [µg/mL] | MIC ([2]; strain 6123520276, MCR (+)) [µg/mL] | MIC ([2]; strain 7013177695, MCR (+)) [µg/mL] | MIC ([2]; strain 7023436560, MCR (+)) [µg/mL] | MIC ([2]; strain 7023444207, MCR (+)) [µg/mL] | MIC ([1]; strain 7023446108, MCR (−)) [µg/mL] | MIC ([2]; strain 6075066346, MCR (+)) [µg/mL] | MIC [3] [µg/mL] | Colistin MIC in the presence of the compound [4, 7] [µg/mL] | Colistin MIC in the presence of the compound [4, 8] [µg/mL] | Colistin MIC in the presence of the compound [4, 9] [µg/mL] | Colistin MIC in the presence of the compound [5, 10] [µg/mL] | Colistin MIC in the presence of the compound [5, 11] [µg/mL] | Colistin MIC in the presence of the compound [6, 12] [µg/mL] | Colistin MIC in the presence of the compound [4, 13] [µg/mL] | Colistin MIC in the presence of the compound [4, 14] [µg/mL] | Colistin MIC in the presence of the compound [4, 15] [µg/mL] | also measured
O=C(O)CN(CCN(CC(=O)O)CC(=O)O)CC(=O)O [EDTA, Ethylenediaminetetraacetic acid, reference compound] | >250 | >250 | >250 | >250 | >250 | >250 | >250 | >250 |  |  |  |  |  |  |  |  |  |  |  |  | MIC ([1]; Escherichia coli, strain 7023446108, MCR (−), read-out: MIC): > 250 µg/mL; MIC ([2]; Escherichia coli, strain 6075066346, MCR (+), read-out: MIC): > 250 µg/mL; MIC ([3]; Enterobacter cloacae, read-out: MIC): > 250 µg/mL; Colistin MIC in the presence of the compound ([4]; strain 6083672926, MCR(−), compound at 250 ug/ml): 0.78 µg/mL; Colistin MIC in the presence of the compound ([4]; strain 7023446108, MCR(−), compound at 250 ug/ml): 0.39 µg/mL; Colistin MIC in the presence of the compound ([4]; strain 7033607097, MCR(−), compound at 250 ug/ml): 0.195 µg/mL; concentration at which the compound shows synergy with colistin ([5]; against mcr-1 bacteria): higher than 250 μg/ml; Colistin MIC in the presence of the compound ([5]; strain 6083655967, MCR(+), compound at 250 ug/ml): 0.78 µg/mL; Colistin MIC in the presence of the compound ([5]; strain 6103645107, MCR(+), compound at 250 ug/ml): 0.39 µg/mL; Colistin MIC in the presence of the compound ([5]; strain 6123520276, MCR(+), compound at 250 ug/ml): 0.78 µg/mL; Colistin MIC in the presence of the compound ([5]; strain 7013177695, MCR(+), compound at 250 ug/ml): 0.78 µg/mL; Colistin MIC in the presence of the compound ([5]; strain 7023436560, MCR(+), compound at 250 ug/ml): 0.39 µg/mL; Colistin MIC in the presence of the compound ([6]; compound at 250 ug/ml): 3.125 µg/mL
CN(C)CCCN(CCCCOc1ccc(C2COc3c(ccc4c3C=CC(C)(C)O4)C2)c(OCCCCN(CCCN(C)C)CCCN(C)C)c1)CCCN(C)C (centres unmarked) [LC095] | 25 (≈ 31 µM) | 25 (≈ 31 µM) | 50 (≈ 61.9 µM) | 25 (≈ 31 µM) | 50 (≈ 61.9 µM) | 25 (≈ 31 µM) | 25 (≈ 31 µM) | 25 (≈ 31 µM) | 25 (≈ 31 µM) | 50 (≈ 61.9 µM) | >50 | 12.5 | 3.125 | 3.125 | 3.125 | 1.56 | >12.5 |  |  |  | Colistin MIC in the presence of the compound ([5]; strain 6075066346, MCR(+), compound at 10 μg (Table 2a: 10 ug/ml)): 3.125 µg/mL; Colistin MIC in the presence of the compound ([5]; strain 6103645107, MCR(+), compound at 10 μg (Table 2a: 10 ug/ml)): 3.125 µg/mL; Colistin MIC in the presence of the compound ([5]; strain 6123520276, MCR(+), compound at 10 μg (Table 2a: 10 ug/ml)): 1.56 µg/mL; Colistin MIC in the presence of the compound ([5]; strain 7013177695, MCR(+), compound at 10 μg (Table 2a: 10 ug/ml)): 3.125 µg/mL; Colistin MIC in the presence of the compound ([5]; strain 7023436560, MCR(+), compound at 10 μg (Table 2a: 10 ug/ml)): 3.125 µg/mL
CN(C)CCCN(C)CCCCOc1ccc(C2COc3c(ccc4c3C=CC(C)(C)O4)C2)c(OCCCCN(C)CCCN(C)C)c1 (centres unmarked) [LC096] | 12.5 (≈ 18.8 µM) | 12.5 (≈ 18.8 µM) | 25 (≈ 37.6 µM) | 12.5 (≈ 18.8 µM) | 25 (≈ 37.6 µM) | 25 (≈ 37.6 µM) | 25 (≈ 37.6 µM) | 25 (≈ 37.6 µM) | 25 (≈ 37.6 µM) | 25 (≈ 37.6 µM) | >25 |  |  |  |  |  |  | <0.195 | <0.195 | <0.195 | Colistin MIC in the presence of the compound ([5]; strain 6075066346, MCR(+), compound at 5 μg (Table 2a: 5 ug/ml)): <0.195 µg/mL; Colistin MIC in the presence of the compound ([5]; strain 6083655967, MCR(+), compound at 5 μg (Table 2a: 5 ug/ml)): <0.195 µg/mL; Colistin MIC in the presence of the compound ([5]; strain 6103645107, MCR(+), compound at 5 μg (Table 2a: 5 ug/ml)): <0.195 µg/mL; Colistin MIC in the presence of the compound ([5]; strain 6123520276, MCR(+), compound at 5 μg (Table 2a: 5 ug/ml)): <0.195 µg/mL; Colistin MIC in the presence of the compound ([5]; strain 7013177695, MCR(+), compound at 5 μg (Table 2a: 5 ug/ml)): <0.195 µg/mL; Colistin MIC in the presence of the compound ([5]; strain 7023436560, MCR(+), compound at 5 μg (Table 2a: 5 ug/ml)): <0.195 µg/mL; Colistin MIC in the presence of the compound ([5]; strain 7023444207, MCR(+), compound at 5 μg (Table 2a: 5 ug/ml)): <0.195 µg/mL; Colistin MIC in the presence of the compound [6, 16]: >25 µg/mL
O=C(C=Cc1ccc(OCCCCN2CCNCCNCCNCC2)cc1)c1ccc(OCCCCN2CCNCCNCCNCC2)cc1O.[Cl][Zn][Cl].[Cl][Zn][Cl] [LC304] | >50 | >50 | >50 | >50 | >50 | >50 | >50 |  | >50 | >50 | >50 | 12.5 | 3.125 | 3.125 | 1.56 | 1.56 | >12.5 | 12.5 | 3.125 | 3.125 | MIC ([2]; strain 7028444207 (Table 1b), MCR (+)): >50 µg/mL; Colistin MIC in the presence of the compound [6, 16]: >12.5 µg/mL
Cc1cc(OCCCCN(Cc2ccccn2)Cc2ccccn2)cc(OCCCCN(Cc2ccccn2)Cc2ccccn2)c1.[Cl][Zn][Cl].[Cl][Zn][Cl] [Orc-DPA-Zn] | 50 | 50 | 50 | >50 | 50 | 50 | 50 | 50 | 50 | 50 | >50 |  |  |  |  |  |  |  |  |  | Colistin MIC in the presence of the compound ([4]; strain 6083672926, MCR(−), compound at 50 ug/ml): <0.195 µg/mL; Colistin MIC in the presence of the compound ([4]; strain 7023446108, MCR(−), compound at 50 ug/ml): <0.195 µg/mL; Colistin MIC in the presence of the compound ([4]; strain 7033607097, MCR(−), compound at 50 ug/ml): <0.195 µg/mL; Colistin MIC in the presence of the compound ([6]; compound at 50 ug/ml): <0.195 µg/mL
